Reference: US10123541B2, “Biocidal mixture, use of biocidal mixture and compositions comprising a biocidal mixture” (ISP Investments LLC, priority 2014, dated 2018)

Tests used:
Test in all cases: Minimum Inhibitory Concentration (MIC) growth test
Format in all cases: cell-based
[1] = system: Candida albicans, ATCC 10231; design: key: − = no growth; + = low growth; ++ = moderate growth; +++ = high growth
From the text: (§1) This example intends to analyze the microbial activity of the mixture of invention compared to the individual activity of the mixture components using the methodology that determines the minimal concentration of the substance or mixture that inhibits microorganism growth.
(§2) The tested micro-organisms were: • Staphylococcus aureus, ATCC 6538 • Escherichia coli, ATCC 8739 • Pseudomonas aeruginosa, ATCC 9027 • Burkholderia cepacia, ATCC 25416 • Candida albicans, ATCC 10231 • Aspergillus brasiliensis, ATCC 16404
(§3) The samples of the table above were initially prepared with an initial concentration of 3% based on their solubility in water, and then diluted to achieve the following concentrations: 1.5%; 0.75%; 0.375%; 0.1875%; 0.09375%.
(§4) The dilutions were obtained as follows: (a) to a first test tube containing 5 mL of tripticase soy broth (TSB), 5 mL of 3% concentration solution were added and the mixture was vortexed. 5 mL of the contents of this tube were removed and added to a second tube containing 5 mL of TSB and the mixture was vortexed. This procedure was repeated until obtaining the various concentrations.
(§5) The tested organisms were prepared as typical organism inoculants, under the form of a saline suspension. The concentration of bacterial inoculants was approximately 1×10^6 cfu/mL (“colony-forming unit per milliliter”). The concentration of fungal inoculants was approximately 1×10^5 spores/mL. In the sequence, each sample solution was inoculated with 0.1 mL of organism inoculum and vortexed. The tubes containing bacteria were incubated for 24 hours at 35° C. and the tubes containing fungi were incubated for 48 hours at 25° C.
(§6) An aliquot of 0.1 mL from these tubes was transferred to a tube having 9 mL of Letheen broth containing neutralizing agents. These Letheen tubes were again incubated for 48 hours with Letheen under incubation temperature for bacteria or fungi. Then, a swab previously wet with TSB was put in contact with sample solutions with concentrations 1.5%; 0.75%; 0.375%; 0.1875% and 0.09375%, and then they were swiped over the surface of culture plates (for bacteria: Letheen agar, AOAC—Association of Official Analytical Chemists; for fungi: Mycophil® agar of low pH with Tween® 20 polysorbate surfactant).

[2] = system: Aspergillus brasiliensis, ATCC 16404; design: key: − = no growth; + = low growth; ++ = moderate growth; +++ = high growth
From the text: as §1, §2, §3, §4, §5, §6

[3] = system: Pseudomonas aeruginosa, ATCC 9027; design: key: − = no growth; + = low growth; ++ = moderate growth; +++ = high growth
From the text: as §1, §2, §3, §4, §5, §6

[4] = system: Staphylococcus aureus, ATCC 6538; design: key to growth of organisms: − = no growth; + = low growth; ++ = moderate growth; +++ = high growth
From the text: as §1, §2, §3, §4, §5, §6

[5] = system: Burkholderia cepacia, ATCC 25416; design: key to growth of organisms: − = no growth; + = low growth; ++ = moderate growth; +++ = high growth
From the text: as §1, §2, §3, §4, §5, §6

[6] = system: Escherichia coli, ATCC 8739; design: key to growth of organisms: − = no growth; + = low growth; ++ = moderate growth; +++ = high growth
From the text: as §1, §2, §3, §4, §5, §6

OCCCc1ccccc1 [Sample 1, Phenylpropanol]
growth of organisms ([1]; sample concentration 0.09375%): +
growth of organisms ([1]; sample concentration 0.1875%): +
growth of organisms ([1]; sample concentration 0.375%): +
growth of organisms ([1]; sample concentration 0.75%): −
growth of organisms ([1]; sample concentration 1.5%): −
growth of organisms ([2]; sample concentration 0.09375%): +
growth of organisms ([2]; sample concentration 0.1875%): +
growth of organisms ([2]; sample concentration 0.375%): +
growth of organisms ([2]; sample concentration 0.75%): −
growth of organisms ([2]; sample concentration 1.5%): −
growth of organisms ([3]; sample concentration 0.09375%): +
growth of organisms ([3]; sample concentration 0.1875%): +
growth of organisms ([3]; sample concentration 0.375%): +
growth of organisms ([3]; sample concentration 0.75%): +
growth of organisms ([3]; sample concentration 1.5%): −
inhibition of growth (in words) ([4]; concentration of 1.5%): not able to inhibit the growth
growth of organisms ([4]; sample concentration 0.09375%): +
growth of organisms ([4]; sample concentration 0.1875%): +
growth of organisms ([4]; sample concentration 0.375%): +
growth of organisms ([4]; sample concentration 0.75%): +
growth of organisms ([4]; sample concentration 1.5%): +
inhibition of growth (in words) ([5]; concentration of 1.5%): not able to inhibit the growth
growth of organisms ([5]; sample concentration 0.09375%): +
growth of organisms ([5]; sample concentration 0.1875%): +
growth of organisms ([5]; sample concentration 0.375%): +
growth of organisms ([5]; sample concentration 0.75%): +
growth of organisms ([5]; sample concentration 1.5%): +
inhibition of growth (in words) ([6]; concentration of 1.5%): not able to inhibit the growth
growth of organisms ([6]; sample concentration 0.09375%): +
growth of organisms ([6]; sample concentration 0.1875%): +
growth of organisms ([6]; sample concentration 0.375%): +
growth of organisms ([6]; sample concentration 0.75%): +
growth of organisms ([6]; sample concentration 1.5%): +
